Laboratory results taken from PubChem BioAssay AID248 (DTP/NCI, 2004).
Several values for one entry are separate records, joined by “and”; a condition that tells them apart may be missing. Equal values may be shown once. Inconclusive results and toxic doses are left out. No stated cut-off is given here; in the data, active means T/C of 150% or more; inactive means T/C below 125%.

Tested on: L1210 leukemia ip in BDF1 mice, survival T/C
Assay: NCI In Vivo Anticancer Drug Screen. Data for tumor model L1210 Leukemia (intraperitoneal) in B6D2F1 (BDF1) mice
Conditions: endpoint: mean survival time, higher = longer survival
Outline: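 Tumor was transplanted into mice, which were then dosed with test compound or vehicle alone. Survival was recorded for each group, and the treated figure was expressed relative to the control figure.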

[1] = dose: 400.0 mg/kg/injection, schedule: Q01DX001 (ip), vehicle: other
[2] = dose: 100.0 mg/kg/injection, schedule: Q01DX009 (ip), vehicle: Klucel (hydroxypropylcellulose) (HPC)
[3] = dose: 100.0 mg/kg/injection, schedule: Q04DX003 (ip), vehicle: Klucel (hydroxypropylcellulose) (HPC)
[4] = dose: 200.0 mg/kg/injection, schedule: Q01DX009 (ip), vehicle: Klucel (hydroxypropylcellulose) (HPC)
[5] = dose: 200.0 mg/kg/injection, schedule: Q04DX003 (ip), vehicle: Klucel (hydroxypropylcellulose) (HPC)
[6] = dose: 400.0 mg/kg/injection, schedule: Q01DX009 (ip), vehicle: Klucel (hydroxypropylcellulose) (HPC)
[7] = dose: 400.0 mg/kg/injection, schedule: Q04DX003 (ip), vehicle: Klucel (hydroxypropylcellulose) (HPC)
[8] = dose: 100.0 mg/kg/injection, schedule: Q01DX001 (ip), vehicle: other
[9] = dose: 200.0 mg/kg/injection, schedule: Q01DX001 (ip), vehicle: other
[10] = dose: 100.0 mg/kg/injection, schedule: Q01DX001 (ip), vehicle: carboxymethylcellulose (CMC)
[11] = dose: 200.0 mg/kg/injection, schedule: Q01DX001 (ip), vehicle: carboxymethylcellulose (CMC)
[12] = dose: 400.0 mg/kg/injection, schedule: Q01DX001 (ip), vehicle: carboxymethylcellulose (CMC)
[13] = dose: 50.0 mg/kg/injection, schedule: Q01DX009 (ip), vehicle: saline
[14] = dose: 50.0 mg/kg/injection, schedule: Q04DX003 (ip), vehicle: Klucel (hydroxypropylcellulose) (HPC)
[15] = dose: 100.0 mg/kg/injection, schedule: Q01DX001 (ip), vehicle: saline
[16] = dose: 200.0 mg/kg/injection, schedule: Q01DX001 (ip), vehicle: saline
[17] = dose: 400.0 mg/kg/injection, schedule: Q01DX001 (ip), vehicle: saline
[18] = dose: 100.0 mg/kg/injection, schedule: Q01DX009 (ip), vehicle: saline
[19] = dose: 200.0 mg/kg/injection, schedule: Q01DX009 (ip), vehicle: saline
[20] = dose: 100.0 mg/kg/injection, schedule: Q04DX003 (ip), vehicle: saline
[21] = dose: 200.0 mg/kg/injection, schedule: Q04DX003 (ip), vehicle: saline
[22] = dose: 400.0 mg/kg/injection, schedule: Q01DX009 (ip), vehicle: saline

Measured: T/C

ClC(Cl)(Cl)c1ccc(C2OCCO2)cc1
inactive: dose: 177.0 mg/kg/injection, schedule: Q01DX001 (ip), vehicle: other 98 % of control | dose: 266.0 mg/kg/injection, schedule: Q01DX001 (ip), vehicle: other 110 % of control | [1] 94 % of control | dose: 600.0 mg/kg/injection, schedule: Q01DX001 (ip), vehicle: other 111 % of control

O=C(Nc1cc(Cl)ccc1Cl)c1ccccc1Cl
inactive: [2] 94 % of control | [3] 102 % of control | [4] 87 % of control | [5] 97 % of control | [6] 92 % of control | [7] 91 % of control

CC(C)CC(NS(=O)(=O)Cc1ccccc1)C(=O)O (centres undefined)
inactive: [8] 105 % of control | [9] 107 % of control | [1] 96 % of control

C[n+]1ccc(C#N)c2ccccc21
inactive: dose: 1.56 mg/kg/injection, schedule: Q01DX009 (ip), vehicle: saline 96 % of control | dose: 3.12 mg/kg/injection, schedule: Q01DX009 (ip), vehicle: saline 98 % of control | dose: 6.25 mg/kg/injection, schedule: Q01DX009 (ip), vehicle: saline 106 % of control | dose: 12.5 mg/kg/injection, schedule: Q01DX009 (ip), vehicle: saline 98 % of control | dose: 12.5 mg/kg/injection, schedule: Q04DX003 (ip), vehicle: saline 101 % of control

O=C(O)CNCCN1CC(=O)N(c2ccccc2)C1=S
inactive: [10] 93 % of control | dose: 100.0 mg/kg/injection, schedule: Q01DX009 (ip), vehicle: carboxymethylcellulose (CMC) 94 % of control and 95 % of control | dose: 100.0 mg/kg/injection, schedule: Q04DX002 (ip), vehicle: carboxymethylcellulose (CMC) 97 % of control and 98 % of control | dose: 100.0 mg/kg/injection, schedule: Q04DX003 (ip), vehicle: carboxymethylcellulose (CMC) 98 % of control | [11] 98 % of control | dose: 200.0 mg/kg/injection, schedule: Q01DX009 (ip), vehicle: carboxymethylcellulose (CMC) 94 % of control and 90 % of control | dose: 200.0 mg/kg/injection, schedule: Q04DX002 (ip), vehicle: carboxymethylcellulose (CMC) 91 % of control | dose: 200.0 mg/kg/injection, schedule: Q04DX003 (ip), vehicle: carboxymethylcellulose (CMC) 93 % of control | [12] 95 % of control | dose: 400.0 mg/kg/injection, schedule: Q01DX009 (ip), vehicle: carboxymethylcellulose (CMC) 86 % of control | dose: 400.0 mg/kg/injection, schedule: Q04DX002 (ip), vehicle: carboxymethylcellulose (CMC) 97 % of control and 98 % of control | dose: 400.0 mg/kg/injection, schedule: Q04DX003 (ip), vehicle: carboxymethylcellulose (CMC) 89 % of control

Cc1ccc(S(=O)(=O)SC(Cl)(Cl)Cl)cc1
inactive: [13] 105 % of control

O=[N+]([O-])c1cc(Cl)cc(Br)c1O
inactive: dose: 12.5 mg/kg/injection, schedule: Q04DX003 (ip), vehicle: Klucel (hydroxypropylcellulose) (HPC) 100 % of control | dose: 25.0 mg/kg/injection, schedule: Q04DX003 (ip), vehicle: Klucel (hydroxypropylcellulose) (HPC) 102 % of control | [14] 105 % of control | [3] 103 % of control

Cc1cc2nc(N)sc2cc1C
inactive: dose: 25.0 mg/kg/injection, schedule: Q01DX009 (ip), vehicle: Klucel (hydroxypropylcellulose) (HPC) 101 % of control | [14] 100 % of control | [3] 89 % of control

O=C1c2cccc3cccc(c23)C(=O)N1CCN1C(=O)c2cccc3cccc(c23)C1=O
inactive: dose: 3.13 mg/kg/injection, schedule: Q01DX009 (ip), vehicle: Klucel (hydroxypropylcellulose) (HPC) 100 % of control | dose: 6.25 mg/kg/injection, schedule: Q01DX009 (ip), vehicle: Klucel (hydroxypropylcellulose) (HPC) 103 % of control | dose: 12.5 mg/kg/injection, schedule: Q01DX009 (ip), vehicle: Klucel (hydroxypropylcellulose) (HPC) 100 % of control

Cc1cc(/C=C/C2=[N+](C)c3ccc(F)cc3C2(C)C)c(O)c2ncccc12
inactive: [10] 98 % of control | [11] 90 % of control | [12] 93 % of control

COc1cc(OC)c(NC(=O)NCCCl)cc1Cl
inactive: [3] 104 % of control | [5] 106 % of control | [7] 97 % of control

O=c1[nH]ccc2n[nH]nc12
inactive: [8] 104 % of control | dose: 100.0 mg/kg/injection, schedule: Q04DX003 (ip), vehicle: other 96 % of control | [9] 101 % of control | dose: 200.0 mg/kg/injection, schedule: Q04DX003 (ip), vehicle: other 105 % of control | [1] 104 % of control | dose: 400.0 mg/kg/injection, schedule: Q04DX003 (ip), vehicle: other 102 % of control

O=C(CCCC(=O)N/N=C/c1c2ccccc2cc2ccccc12)N/N=C/c1c2ccccc2cc2ccccc12
inactive: dose: 50.0 mg/kg/injection, schedule: Q01DX001 (ip), vehicle: saline 100 % of control | [15] 102 % of control | [16] 96 % of control | [17] 96 % of control

CS(=O)(=O)CCC(C#N)(CCS(C)(=O)=O)c1ccccc1
inactive: [3] 110 % of control | [5] 100 % of control | [7] 102 % of control

C/C=C/C=N/NC(=O)c1ccc[n+](C)c1
inactive: [13] 112 % of control | [18] 104 % of control | [19] 112 % of control

OC(CNc1ccc(Cl)cc1)CN1CCOCC1 (centres undefined)
inactive: [20] 96 % of control | [21] 89 % of control

Cn1c(N)c(N=Nc2ccc(S(=O)(=O)Nc3ccccn3)cc2)c(=O)n(C)c1=O
inactive: [10] 98 % of control | [11] 93 % of control | [12] 93 % of control

Cc1cc(Br)c(N(C=O)N=O)c(Br)c1
inactive: dose: 75.0 mg/kg/injection, schedule: Q01DX001 (ip), vehicle: saline 101 % of control | dose: 150.0 mg/kg/injection, schedule: Q01DX001 (ip), vehicle: saline 104 % of control

NC(N)=N/N=C/c1c2ccccc2cc2ccccc12
inactive: dose: 15.0 mg/kg/injection, schedule: Q01DX Z (ip), vehicle: carboxymethylcellulose (CMC) 101 % of control | dose: 30.0 mg/kg/injection, schedule: Q01DX Z (ip), vehicle: carboxymethylcellulose (CMC) 101 % of control | dose: 240.0 mg/kg/injection, schedule: Q01DX Z (oral), vehicle: carboxymethylcellulose (CMC) 104 % of control

O=C1c2ccccc2C(=O)N1Cc1cccc(Nc2cc(=O)[nH]c(=O)[nH]2)c1
inactive: dose: 200.0 mg/kg/injection, schedule: Q01DX001 (ip), vehicle: saline with Tween-80 95 % of control

CCOC(=O)/C=C/C(F)(F)C(F)(F)C(F)(F)C(F)(F)C(F)(F)C(F)(F)C(F)(F)F
inactive: [18] 98 % of control | [19] 105 % of control | [22] 105 % of control

FC(F)(F)C(F)(Cl)C(Cl)(Cl)C(F)(F)F (centres undefined)
inactive: [18] 97 % of control | [20] 100 % of control | [19] 97 % of control | [21] 101 % of control | [22] 97 % of control | dose: 400.0 mg/kg/injection, schedule: Q04DX003 (ip), vehicle: saline 90 % of control

COc1cc([N+](=O)[O-])c2nc(C)ccc2c1[N+](=O)[O-]
inactive: dose: 50.0 mg/kg/injection, schedule: Q01DX001 (ip), vehicle: carboxymethylcellulose (CMC) 100 % of control | [10] 100 % of control | [11] 100 % of control | [12] 100 % of control

CC(CC(=O)c1ccc(F)cc1)N1CCOCC1 (centres undefined)
inactive: [15] 92 % of control | [16] 90 % of control

O=NN1CCC1
inactive: [15] 97 % of control | [16] 93 % of control | [17] 93 % of control

CCCCC(CCN(C)C)(CNC(=O)CN(CC)CC)c1cccc2ccccc12 (centres undefined)
inactive: dose: 25.0 mg/kg/injection, schedule: Q01DX009 (ip), vehicle: saline 91 % of control | [13] 91 % of control | [18] 90 % of control | [20] 100 % of control

CCCn1c2ccccc2c2ccccc21
inactive: [2] 96 % of control | [4] 97 % of control | [6] 94 % of control
